Measurements taken from paper PMC4414177, “A novel orally active water-soluble inhibitor of human glutathione transferase exerts a potent and selective antitumor activity against human melanoma xenografts” (Oncotarget, 2015).
Values after ≈ are worked out from the molar mass of the structure shown. Each block holds one compound with its values, some of them ahead of it.

How the values were obtained:
A375 cells [1] = test: Caspase-3 activity in cell lysates; format: cell-based, human; conditions: A375, pretreatment with SP600125 20 μM, 24 hrs exposure to MC3181
Method: Apoptosis was confirmed by measuring caspase-3 activity, at 25°C, in total cell lysates, using the model fluorescent peptide substrate N-Acetyl-Asp-Glu-Val-Asp-7-amido-4-trifluoromethylcoumarin (Ac-DEVD-AFC). […] Caspase activity was expressed as change in fluorescence per min, per 10^6 cells.

A375 cells [2] = test: Cell cycle analysis (PI, flow cytometry); format: cell-based, human; conditions: A375, pretreatment with SP600125 20 μM, 24 hrs exposure to MC3181
Method: A375 and SK23-MEL cells, were fixed with 70% ethanol overnight, stained with PI staining buffer ([…] and 1% Triton X-100) and analyzed by a FACSCalibur (BD Bioscence, San Jose, CA, USA). The percentage of early apoptotic, late apoptotic, and necrotic cells was determined by simultaneous staining of cells with PI (2 μg/ml) and Annexin V-FITC (0.5 μg/ml) (Sigma Aldrich), according to manufacturer's protocol. Flow cytometric data were analyzed by the FlowJo 8.8.6 software (Tree Stare, Inc, Ashland, OR, USA).

[3] = system: mice bearing human tumor xenografts; test: Toxicity in tumor-bearing mice (net BW variation, macroscopic autopsy); format: in vivo; conditions: during treatment, MC3181 8 mg/kg/day, TMZ 100 mg/kg/day i.p.
Method: Toxicity was also evaluated in tumor-bearing mice on the basis of macroscopic autopsy findings, mainly in terms of alteration to the size and color of vital organs, and net BW reduction. The percentage of net BW variation, between the first day of treatment and sacrifice day (or day of interest), was evaluated according to the following equation: % net BW variation =net BW at observation day −net BW at first day of treatment/net BW at first day of treatment ×100 (Eq. 2)

A375 human melanoma = test: A375 fragment xenograft model, antitumor efficacy; format: in vivo, mice; conditions: MC3181 i.v. 8mg/kg/d q1dx5 three weeks
Method: With regard to the in vivo fragment tumor model, A375 cells were injected (1×10^7) subcutaneously (s.c.) into the right flank of an athymic Nude-Foxn1nu female mouse, and the established primary tumor was then removed and cut into fragments (2–3 mm diameter) and implanted s.c. into recipient mice. Animals were randomly divided in groups of 7 mice and treatment was initiated when a tumor volume of 0.12 ± 0.01 cm^3 (mean ± SEM) was reached.
The reference drug temozolomide, dissolved in DMSO/PBS 1:1 to a final concentration of 10 mg/ml, was administered i.p. q1dx5 at a dose of 100mg/kg/day.
Primary tumor growth was determined for all animals by caliper measurement (minor and major axis length), three times per week, until they were sacrificed. Primary tumor volume was determined using the following equation: V (cm^3)=(α^2×β)/2 (Eq. 3)
The efficacy of the treatment was also analyzed by calculation of the percentage of Increase in Life Span (% ILS), since this analysis gives an evidence of clinical potency. Survival endpoint for each animal was fixed at the day when tumor volume reached 1.0 cm^3 (A375) or 0.4 cm^3 (SK23-MEL and G-361), and data were used to plot the relative Kaplan-Meier curves. Treatment efficacy was then evaluated by comparing the Median Survival Time (MST) of treated group with the MST of control group, and expressed as percentage of ILS: % ILS=[100×(MSTtreated group)/(MSTcontrol group)]−100 (Eq. 4)
Treatment was considered effective when % ILS > 20%.

GSTM2-2 = biological target: T1, GSTM2-2 (Homo sapiens, UniProt P28161); test: Inhibition of GSTM2-2 conjugation activity; format: biochemical; conditions: GSTM2-2 5 nM
T1 construct: made in house; host or cells: Escherichia coli
T1 sequence (P28161 1-218): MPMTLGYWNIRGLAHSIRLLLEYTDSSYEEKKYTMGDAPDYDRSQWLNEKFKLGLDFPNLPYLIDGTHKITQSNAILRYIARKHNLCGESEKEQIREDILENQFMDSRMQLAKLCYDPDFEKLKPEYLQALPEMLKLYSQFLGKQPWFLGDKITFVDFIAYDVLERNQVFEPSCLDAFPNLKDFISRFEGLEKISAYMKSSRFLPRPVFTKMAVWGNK
Method: (§1) Human GSTM2-2, GSTP1-1, JNK1a2 and TRAF2 were expressed in Escherichia coli and purified as previously described; protein concentration was determined using the Lowry colorimetric assay. Unless specified otherwise, all chemicals were purchased from Sigma-Aldrich S.r.l. (Milan, Italy).
(§2) GST activity was determined spectrophotometrically at 340 nm (ε = 9,600 M^−1 cm^−1), as previously reported. Inhibition experiments were performed by measuring GSTP1-1 (20 nM) or GSTM2-2 (5 nM) activities in the presence of various amounts of the selected NBD derivative (from 0.1 to 20 μM with GSTP1-1, and from 0.005 and 1 μM with GSTM2-2). Fifty percent inhibitory concentration (IC50) values were calculated by fitting the data to Equation 1, where ν is the percentage of the saturated binding sites; [P]t is the total GST concentration and [L]t is the total inhibitor concentration, assuming a 1:1 interaction stoichiometry between the inhibitor and one GST subunit, as well as that the binding sites are equal and independent.

SK23-MEL = test: Cell growth inhibition, SRB assay; format: cell-based; conditions: Homo sapiens, 48 h
Method: (§3) The IC50 values for each compound were then evaluated by the SRB assay.

IST-MEL-1 = test: Cell growth inhibition, SRB assay; format: cell-based; conditions: Homo sapiens, IST-MEL-1, 48 h
Method: as §3

G-361 = test: Cell growth inhibition, SRB assay; format: cell-based; conditions: Homo sapiens, G-361, 48 h
Method: as §3

MALME-3M = test: Cell growth inhibition, SRB assay; format: cell-based; conditions: Homo sapiens, 48 h
Method: as §3

A375 = test: Cell growth inhibition, SRB assay; format: cell-based; conditions: Homo sapiens, A-375, A375, 48 h
Method: as §3

[4] = Spontaneous reactivity with GSH (UV-visible spectra); format: physicochemical; conditions: 40 μM compound, 1 mM GSH, 0.1 M potassium phosphate buffer pH 6.5, 25°C, within 1 h
Method: The spontaneous reactivity of the NBDs with GSH was determined at 25°C by recording the UV-visible spectrum of each compound (40 μM) incubated with 1 mM GSH, in 0.1 M potassium phosphate buffer, pH 6.5, at different time points.

[5] = Solubility limits in aqueous buffers; format: physicochemical; conditions: thermodynamic from solid
From the text: The solutions obtained were separated from any undissolved matter by centrifugation at 15,000 g and evaluated for drug concentration by recording compound absorbance at 425 nm, using molar extinction coefficients calculated at the same wavelength with diluted standard solutions, prepared in the same matrices.

GSTP1-1 [6] = biological target: T2, GSTP1-1 (Homo sapiens, UniProt P09211); test: Sigma complex formation in the GSTP1-1 active site; format: biochemical; conditions: 40 μM compound, 40 μM GSTP1-1, 1 mM GSH, pH 6.5, 25°C
T2 construct: made in house; host or cells: Escherichia coli
T2 sequence (P09211 2-210 limits assumed): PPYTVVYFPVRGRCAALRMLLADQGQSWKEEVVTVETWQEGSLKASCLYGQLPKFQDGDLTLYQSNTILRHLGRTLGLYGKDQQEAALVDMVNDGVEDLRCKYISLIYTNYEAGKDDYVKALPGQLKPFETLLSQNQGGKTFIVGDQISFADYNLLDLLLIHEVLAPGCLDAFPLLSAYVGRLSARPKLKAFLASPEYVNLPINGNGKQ
Method: as §1
The ability of GSTP1-1 to stabilize the intermediate σ-complex formed between GSH and the compounds, was evaluated by recording the spectrum of each molecule (40 μM), in 0.1 M potassium phosphate buffer, pH 6.5, before and after the addition of a stoichiometric amount of GSTP1-1 and 1 mM GSH.

GSTP1-1 [7] = biological target: T2, GSTP1-1; test: Inhibition of GSTP1-1 conjugation activity; format: biochemical
Method: as §1
as §2, with “Inhibition experiments were performed by measuring GSTP1-1 (20 nM) or GSTM2-2 (5 nM) activities in the presence of various amounts of the selected NBD derivative (from 0.1 to 20 μM with GSTP1-1, and from 0.005 and 1 μM with GSTM2-2).” left out

Structure (SMILES): Oc1c2ccccc2c2c3c(cccc13)N=N2 [SP600125, reference compound]
reduction of the MC3181-elicited increase of caspase-3 activity (A375 cells [1]): about 50%
reduction of the MC3181-elicited increase in the number of cells in Sub-G1 phase (A375 cells [2]): about 40%

Structure (SMILES): Cn1nnc2c(C(N)=O)ncn2c1=O [TMZ, temozolomide, reference compound]
decrease in BW [3]: ~15%
%ILS (A375 human melanoma; TMZ i.p. 100 mg/kg/d q1dx5): 35%
tumor growth (A375 human melanoma; TMZ i.p. 100 mg/kg/d q1dx5, from day 13 onward, P < 0.05): significantly delayed tumor growth

IC50 (GSTM2-2): ≤ 0.01 µM
IC50 (A375): 1.45 ± 0.14 µM
Structure (SMILES): O=[N+]([O-])c1ccc(SCCCCCCO)c2nonc12 [NBDHEX, 6-((7-nitrobenzo[c][1,2,5]oxadiazol-4-yl)thio)hexan-1-ol, reference compound]
IC50 (SK23-MEL): 1.19 ± 0.09 µM
IC50 (IST-MEL-1): 1.42 ± 0.05 µM
IC50 (G-361): 0.55 ± 0.03 µM
IC50 (MALME-3M): 1.8 ± 0.12 µM

IC50 (GSTM2-2): 0.051 ± 0.008 µM
decrease of the absorbance value at 430 nm after addition of excess GSH [4]: less than 15%
solubility ([5]; potassium phosphate buffer, pH 7.4, 0.1 M K-Phosphate buffer): 2000 µM (≈ 571 µg/mL)
solubility ([5]; sodium acetate buffer, pH 2.0, 0.1 M Na-Acetate Buffer): 2000 µM (≈ 571 µg/mL)
solubility ([5]; sodium acetate buffer, pH 5.0, 0.1 M Na-Acetate Buffer): 1900 µM (≈ 542 µg/mL)
stability of the σ-complex, rank order (GSTP1-1 [6]): NBDHEX > MC3181 > MC3165
Selectivity Index IC50GSTP1-1/IC50GSTM2-2 (GSTP1-1 [7]): 78
IC50 (GSTP1-1 [7]; GSTP1-1 20 nM): 4 ± 0.2 µM
Structure (SMILES): O=[N+]([O-])c1ccc(SCCOCCO)c2nonc12 [MC3165, 2-(2-((7-nitrobenzo[c][1,2,5]oxadiazol-4-yl)thio)ethoxy)ethan-1-ol]
